From patent publication US20230374103A1, “Wnt SIGNALING PATHWAY INHIBITOR” (OSAKA UNIVERSITY, priority 2020, published 2023)
Residues, ends and D or L forms follow the SMILES beside them.

Key:
[1] = system: A549 cells; assay: Proliferation assay (MTT) of A549 cells; assay type: cell-based, human
Method: The influence RANKL peptide on the proliferation of A549 cells (human lung alveolar basal epithelial cells: high expression of both LGR4 and RSPO3 was confirmed) was examined. Specifically, the following procedure was performed. MHP1 was administered at 1 ng/ml to 100 μg/ml to A549 cells, and the cell viability was calculated by MTT assay after 40 hours.

[2] = system: smad2/3; assay: smad2/3 activation induced by TGF-β in MRC-5 cells (WB); assay type: cell-based; conditions: 24 hours pretreatment, 5 ng/ml TGFβ, 10 minutes, MHP1-AcN (FIG. 17)
Method: The influence of RANEL peptide on smad2/3 activation induced by TGF-β was examined. Specifically, the following procedure was performed. After pretreatment of MRC-5 cells with MHP1 for 24 hours, 5 ng/ml of TGFβ was added to the medium, the medium was collected after 10 minutes, and WB was performed.

CC[C@H](C)[C@H](NC(=O)[C@H](CO)NC(=O)[C@@H](NC(=O)[C@H](CCCCN)NC(=O)[C@@H](NC(=O)[C@@H](NC(=O)[C@H](Cc1ccc(O)cc1)NC(=O)[C@@H](NC(=O)[C@H](CCSC)NC(=O)[C@H](CC(C)C)NC(C)=O)C(C)C)C(C)C)C(C)C)[C@@H](C)O)C(=O)N[C@@H](CCCCN)C(=O)N[C@H](C(=O)N1CCC[C@H]1C(=O)N[C@@H](CO)C(=O)N[C@@H](CO)C(=O)N[C@@H](Cc1c[nH]cn1)C(=O)N[C@@H](CC(N)=O)C(=O)N[C@@H](CC(C)C)C(=O)N[C@@H](CCSC)C(=O)N[C@@H](CCCCN)C(=O)NCC(=O)NCC(=O)N[C@@H](CO)C(=O)N[C@H](C(=O)N[C@@H](CCCCN)C(=O)N[C@@H](CC(N)=O)C(=O)N[C@@H](Cc1c[nH]c2ccccc12)C(=O)N[C@@H](CO)C(=O)NCC(=O)N[C@@H](CC(N)=O)C(N)=O)[C@@H](C)O)[C@@H](C)CC [MHP1-7] (Ac-LMVYVVKTSIKIPSSHNLMKGGSTKNWSGN-NH2)
inhibited: proliferation of lung cancer cells (cell viability, MTT) ([1]; A549 cells, 1 ng/ml to 100 μg/ml, 40 hours, MHP1-AcN (FIG. 14)) | Wnt signaling pathway in A549 cells ([1]; along with the inhibition of the proliferation) | smad2/3 activation induced by TGF-β [2]
